Test results: patent US20230098403A1, “MAGNETIC RESONANCE IMAGING CONTRAST AGENT, PREPARATION METHOD AND USE THEREOF” (GUANGZHOU PINGLAN MEDICAL TECHNOLOGY CO., LTD., priority 2020, published 2023)

Tests used:
[1] = comparison value for the commercial agent; cited from earlier work
[2] = Relaxivity measurement (T1 and T2 relaxation, MRI Contrast Agent Analyzer); format: physicochemical; settings: 0.5 T, 32° C.
Protocol: The method for measuring the relaxivity comprises the following steps: preparing contrast agent solutions in a gradient concentration (0.054, 0.109, 0.224, 0.451, 0.906 mM, in Hepes buffer, pH=7.4), and measuring the contrast agent samples at different concentrations by Niumag PQ001 MRI Contrast Agent Analyzer (0.5±0.08T, main frequency of instrument: 21.3 MHz; at 32° C.) to respectively obtain their T1 and T2 relaxation time, and then performing a linear fitting between the relaxation rate, Ri (Ri=1/Ti, i=1, 2) and the contrast agent concentrations to obtain a slope, i.e., relaxivity (ri, i=1, 2). Relaxivity reflects the ability of magnetic resonance imaging contrast agent to alter the relaxation time of water proton and is an important parameter to evaluate the quality of contrast agent. Relaxivity (ri, i=1, 2) is defined as the alteration in the relaxation rate of water proton (1/Ti, i=1, 2) by unit concentration of MRI Contrast agent (mmol/L).

Row | Structure (SMILES) | relaxivity r1 [1] [mmol⁻¹ s⁻¹] | relaxation efficiency r1 [2] [mmol⁻¹ s⁻¹]
1 | CNC[C@H](O)[C@@H](O)[C@H](O)[C@H](O)CO.CNC[C@H](O)[C@@H](O)[C@H](O)[C@H](O)CO.O=C([O-])CN(CCN(CC(=O)[O-])CC(=O)O)CCN(CC(=O)[O-])CC(=O)O.[Gd+3] [Magnvist®] | 3.4 | 
2 | O=C([O-])CN(CP(=O)([O-])O)C1CCCCC1N(CC(=O)[O-])CP(=O)([O-])O.[Fe+3].[Na+] (centres unmarked) [Example 4] |  | 1.80
